Experimental data from patent publication US20230340011A1 (Asteroid Therapeutics, priority 2022, published 2023).

How the values were obtained:
LXRβ = LXRβ (Homo sapiens (Human), UniProt P55055); test: In vitro assay LXRβ: PathHunter NHR CHO cells, LXRβ / Steroid Receptor Co-activator Peptide enzyme fragment complementation; format: cell-based; conditions: PathHunter NHR CHO cells, full-length human LXRβ and SRCP, chemiluminescent signal; read-out: LXRβ PPI
Outline: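 Co-activator recruitment measured by chemiluminescence after signal generation. The CHO line carries full-length human LXRβ tagged with ProLink and an SRCP–enzyme acceptor fusion in the nucleus; cells sat overnight at 37° C before testing, in charcoal-dextran filtered serum medium with 1% final vehicle.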

SREBP-2 = SREBP-2 (Homo sapiens (Human), UniProt Q12772); test: In vitro assay SREBP-2: PathHunter U2OS SREBP-2 Nuclear Translocation Cell Line, U18666A-stimulated; format: cell-based; conditions: PathHunter U2OS SREBP-2 nuclear translocation cells, U18666A 10 μM, overnight (16 hours)

Sequence of LXRβ (P55055 whole entry, the tested form may be a part): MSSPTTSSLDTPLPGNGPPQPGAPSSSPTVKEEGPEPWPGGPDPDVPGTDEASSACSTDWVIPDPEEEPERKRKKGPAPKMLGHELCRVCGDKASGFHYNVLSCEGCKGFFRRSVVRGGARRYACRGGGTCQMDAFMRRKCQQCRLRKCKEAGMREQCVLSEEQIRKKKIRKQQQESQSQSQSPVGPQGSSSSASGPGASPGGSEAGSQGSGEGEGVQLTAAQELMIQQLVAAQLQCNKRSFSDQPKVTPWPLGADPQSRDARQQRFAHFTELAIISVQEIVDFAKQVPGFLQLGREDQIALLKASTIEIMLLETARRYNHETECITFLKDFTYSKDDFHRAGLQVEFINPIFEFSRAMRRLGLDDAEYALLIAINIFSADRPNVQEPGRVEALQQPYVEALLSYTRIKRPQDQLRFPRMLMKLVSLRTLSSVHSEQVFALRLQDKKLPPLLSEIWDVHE

CC[C@]1(O)CC[C@@]2(C)C(=CC[C@H]3[C@@H]4CC[C@H]([C@H](C)CCC(=O)N5CCN(C(=O)OC)CC5)[C@@]4(C)CC[C@@H]32)C1 [Example 284, methyl 4-[(4R)-4-[(1R,3aS,3bS,7S,9aR,9bS,11aR)-7-ethyl-7-hydroxy-9a,11a-dimethyl-1H,2H,3H,3aH,3bH,4H,6H,7H,8H,9H,9aH,9bH,10H,11H,11aH-cyclopenta[a]phenanthren-1-yl]pentanoyl]piperazine-1-carboxylate]
EC50 (LXRβ): > 10000 nM
IC50 (SREBP-2): 1000 to 10000 nM

C[C@H](CCc1cscn1)[C@H]1CC[C@H]2[C@@H]3CC=C4C[C@@H](O)CC[C@]4(C)[C@H]3CC[C@]12C [Example 175, (1R,3aS,3bS,7S,9aR,9bS,11aR)-9a,11a-dimethyl-1-[(2R)-4-(1,3-thiazol-4-yl)butan-2-yl]-1H,2H,3H,3aH,3bH,4H,6H,7H,8H,9H,9aH,9bH,10H,11H,11aH-cyclopenta[a]phenanthren-7-ol]
EC50 (LXRβ): 1000 to 10000 nM
IC50 (SREBP-2): < 250 nM

C[C@H](CCC(=O)N1CCC(N(C)C(=O)c2ccncc2)CC1)[C@H]1CC[C@H]2[C@@H]3CC=C4C[C@@H](O)CC[C@]4(C)[C@H]3CC[C@]12C [Example 288, N-(1-((R)-4-((3S,8S,9S,10R,13R,14S,17R)-3-hydroxy-10,13-dimethyl-2,3,4,7,8,9,10,11,12,13,14,15,16,17-tetradecahydro-1H-cyclopenta[a]phenanthren-17-yl)pentanoyl)piperidin-4-yl)-N-methylisonicotinamide]
EC50 (LXRβ): > 10000 nM
IC50 (SREBP-2): 250 to 1000 nM

C[C@H](CCC(=O)N1CCN(c2ccncn2)C[C@@H]1C)[C@H]1CC[C@H]2[C@@H]3CC=C4C[C@@H](O)CC[C@]4(C)[C@H]3CC[C@]12C [Example 588, (4R)-4-[(1R,3aS,3bS,7S,9aR,9bS,11aR)-7-hydroxy-9a,11a-dimethyl-1H,2H,3H,3aH,3bH,4H,6H,7H,8H,9H,9aH,9bH,10H,11H,11aH-cyclopenta[a]phenanthren-1-yl]-1-[(2S)-2-methyl-4-(pyrimidin-4-yl)piperazin-1-yl]pentan-1-one]
EC50 (LXRβ): > 10000 nM
IC50 (SREBP-2): < 250 nM

C[C@H](CCC(=O)N1CCC2(CCCO2)CC1)[C@H]1CC[C@H]2[C@@H]3CC=C4C[C@@H](O)CC[C@]4(C)[C@H]3CC[C@]12C [Example 88, (R)-4-((3S,8S,9S,10R,13R,14S,17R)-3-hydroxy-10,13-dimethyl-2,3,4,7,8,9,10,11,12,13,14,15,16,17-tetradecahydro-1H-cyclopenta[a]phenanthren-17-yl)-1-(1-oxa-δ-azaspiro[4.5]decan-δ-yl)pentan-1-one]
EC50 (LXRβ): > 10000 nM
IC50 (SREBP-2): < 250 nM

CCCN(CCC)C(=O)C(=O)O[C@@H](C)[C@H]1CC[C@H]2[C@@H]3CC=C4C[C@@H](O)CC[C@]4(C)[C@H]3CC[C@]12C [Example 196, (S)-1-((3S,8S,9S,10R,13S,14S,17S)-3-hydroxy-10,13-dimethyl-2,3,4,7,8,9,10,11,12,13,14,15,16,17-tetradecahydro-1H-cyclopenta[a]phenanthren-17-yl)ethyl 2-(dipropylamino)-2-oxoacetate]
EC50 (LXRβ): 1000 to 10000 nM
IC50 (SREBP-2): < 250 nM

CC(=O)N[C@H]1CCN(C(=O)CC[C@@H](C)[C@H]2CC[C@H]3[C@@H]4CC=C5C[C@@H](O)CC[C@]5(C)[C@H]4CC[C@]23C)C1 [Example 322, N—((S)-1-((R)-4-((3S,8S,9S,10R,13R,14S,17R)-3-hydroxy-10,13-dimethyl-2,3,4,7,8,9,10,11,12,13,14,15,16,17-tetradecahydro-1H-cyclopenta[a]phenanthren-17-yl)pentanoyl)pyrrolidin-3-yl)acetamide]
EC50 (LXRβ): > 10000 nM
IC50 (SREBP-2): < 250 nM

COC(=O)N1CCN(C(=O)CC[C@@H](C)[C@H]2CC[C@H]3[C@@H]4CC=C5C[C@](O)(C(F)(F)F)CC[C@]5(C)[C@H]4CC[C@]23C)CC1 [Example 285, methyl 4-((R)-4-((3S,8S,9S,10R,13R,14S,17R)-3-hydroxy-10,13-dimethyl-3-(trifluoromethyl)-2,3,4,7,8,9,10,11,12,13,14,15,16,17-tetradecahydro-1H-cyclopenta[a]phenanthren-17-yl)pentanoyl)piperazine-1-carboxylate]
EC50 (LXRβ): > 10000 nM
IC50 (SREBP-2): 1000 to 10000 nM

COc1ncc(OC)c(N2CCN(C(=O)CC[C@@H](C)[C@H]3CC[C@H]4[C@@H]5CC=C6C[C@@H](O)CC[C@]6(C)[C@H]5CC[C@]34C)CC2)n1 [Example 617, (R)-1-(4-(2,5-dimethoxypyrimidin-4-yl)piperazin-1-yl)-4-((3S,8S,9S,10R,13R,14S,17R)-3-hydroxy-10,13-dimethyl-2,3,4,7,8,9,10,11,12,13,14,15,16,17-tetradecahydro-1H-cyclopenta[a]phenanthren-17-yl)pentan-1-one]
EC50 (LXRβ): > 10000 nM
IC50 (SREBP-2): < 250 nM

C[C@H](CCC(=O)N1CCC(S(=O)(=O)N(C)C)CC1)[C@H]1CC[C@H]2[C@@H]3CC=C4C[C@@H](O)CC[C@]4(C)[C@H]3CC[C@]12C [Example 413, 1-((R)-4-((3S,8S,9S,10R,13R,14S,17R)-3-hydroxy-10,13-dimethyl-2,3,4,7,8,9,10,11,12,13,14,15,16,17-tetradecahydro-1H-cyclopenta[a]phenanthren-17-yl)pentanoyl)-N,N-dimethylpiperidine-4-sulfonamide]
EC50 (LXRβ): > 10000 nM
IC50 (SREBP-2): 250 to 1000 nM

C=CCN1C[C@H]2CCN(C(=O)CC[C@@H](C)[C@H]3CC[C@H]4[C@@H]5CC=C6C[C@@H](O)CC[C@]6(C)[C@H]5CC[C@]34C)[C@H]2C1 [Example 140, (R)-1-((3aR,6aR)-5-allylhexahydropyrrolo[3,4-b]pyrrol-1(2H)-yl)-4-((3S,8S,9S,10R,13R,14S,17R)-3-hydroxy-10,13-dimethyl-2,3,4,7,8,9,10,11,12,13,14,15,16,17-tetradecahydro-1H-cyclopenta[a]phenanthren-17-yl)pentan-1-one]
EC50 (LXRβ): > 10000 nM
IC50 (SREBP-2): 250 to 1000 nM

CC(C)N1CCN(C(=O)CC[C@@H](C)[C@H]2CC[C@H]3[C@@H]4CC=C5C[C@@H](O)CC[C@]5(C)[C@H]4CC[C@]23C)CC1 [Example 316, (R)-4-((3S,8S,9S,10R,13R,14S,17R)-3-hydroxy-10,13-dimethyl-2,3,4,7,8,9,10,11,12,13,14,15,16,17-tetradecahydro-1H-cyclopenta[a]phenanthren-17-yl)-1-(4-isopropylpiperazin-1-yl) pentan-1-one]
EC50 (LXRβ): > 10000 nM
IC50 (SREBP-2): < 250 nM

COC(=O)N1CCC2(CCN(C(=O)CC[C@@H](C)[C@H]3CC[C@H]4[C@@H]5CC=C6C[C@@H](O)CC[C@]6(C)[C@H]5CC[C@]34C)C2)C1 (stereo partly drawn) [Example 554, Methyl 7-((R)-4-((3S,8S,9S,10R,13R,14S,17R)-3-hydroxy-10,13-dimethyl-2,3,4,7,8,9,10,11,12,13,14,15,16,17-tetradecahydro-1H-cyclopenta[a]phenanthren-17-yl)pentanoyl)-2,7-diazaspiro[4.4]nonane-2-carboxylate]
EC50 (LXRβ): > 10000 nM
IC50 (SREBP-2): < 250 nM

COc1cccc(CC[C@@H](C)[C@H]2CC[C@H]3[C@@H]4CC=C5C[C@@H](O)CC[C@]5(C)[C@H]4CC[C@]23C)n1 [Example 168, (3S,8S,9S,10R,13R,14S,17R)-17-((R)-4-(6-methoxypyridin-2-yl)butan-2-yl)-10,13-dim ethyl-2,3,4,7,8,9,10,11,12,13,14,15,16,17-tetradecahydro-1H-cyclopenta[a]phenanthren-3-ol]
EC50 (LXRβ): > 10000 nM
IC50 (SREBP-2): 250 to 1000 nM

C[C@H](CCC(=O)N1CCC(CO)CC1)[C@H]1CC[C@H]2[C@@H]3CC=C4C[C@@H](O)CC[C@]4(C)[C@H]3CC[C@]12C [Example 376, (4R)-4-[(1R,3aS,3bS,7S,9aR,9bS,11aR)-7-hydroxy-9a,11a-dimethyl-1H,2H,3H,3aH,3bH,4H,6H,7H,8H,9H,9aH,9bH,10H,11H,11aH-cyclopenta[a]phenanthren-1-yl]-1-[4-(hydroxymethyl)piperidin-1-yl]pentan-1-one]
EC50 (LXRβ): 250 to 1000 nM
IC50 (SREBP-2): < 250 nM

CC(=O)NC1(C)CCN(C(=O)CC[C@@H](C)[C@H]2CC[C@H]3[C@@H]4CC=C5C[C@@H](O)CC[C@]5(C)[C@H]4CC[C@]23C)CC1 [Example 83, N-(1-((R)-4-((3S,8S,9S,10R,13R,14S,17R)-3-hydroxy-10,13-dimethyl-2,3,4,7,8,9,10,11,12,13,14,15,16,17-tetradecahydro-1H-cyclopenta[a]phenanthren-17-yl)pentanoyl)-4-methylpiperidin-4-yl)acetamide]
EC50 (LXRβ): > 10000 nM
IC50 (SREBP-2): 250 to 1000 nM

C[C@H](CCC(=O)N1CCN(C(=O)c2cnn(C)c2)C[C@@H]1C)[C@H]1CC[C@H]2[C@@H]3CC=C4C[C@@H](O)CC[C@]4(C)[C@H]3CC[C@]12C [Example 578, (R)-4-((3S,8S,9S,10R,13R,14S,17R)-3-hydroxy-10,13-dimethyl-2,3,4,7,8,9,10,11,12,13,14,15,16,17-tetradecahydro-1H-cyclopenta[a]phenanthren-17-yl)-1-((S)-2-methyl-4-(1-methyl-1H-pyrazole-4-carbonyl)piperazin-1-yl)pentan-1-one]
EC50 (LXRβ): > 10000 nM
IC50 (SREBP-2): < 250 nM

CCC1(O)CC2(CN(C(=O)CC[C@@H](C)[C@H]3CC[C@H]4[C@@H]5CC=C6C[C@@H](O)CC[C@]6(C)[C@H]5CC[C@]34C)C2)C1 [Example 102, (R)-1-(6-ethyl-6-hydroxy-2-azaspiro[3.3]heptan-2-yl)-4-((3S,8S,9S,10R,13R,14S,17R)-3-hydroxy-10,13-dimethy12,3,4,7,8,9,10,11,12,13,14,15,16,17-tetradecahydro-1H-cyclopenta[a]phenanthren-17-yl)pentan-1-one]
EC50 (LXRβ): > 10000 nM
IC50 (SREBP-2): < 250 nM
